# Biological target: T1, aldosterone synthase (Homo sapiens, UniProt P19099)
# T1 construct: synthesized in the adrenal cortex by aldosterone synthase; endogenous in cells; host or cells: adrenal cortex of healthy human subjects (in vivo, oral dosing)
# T1 sequence (P19099 25-503): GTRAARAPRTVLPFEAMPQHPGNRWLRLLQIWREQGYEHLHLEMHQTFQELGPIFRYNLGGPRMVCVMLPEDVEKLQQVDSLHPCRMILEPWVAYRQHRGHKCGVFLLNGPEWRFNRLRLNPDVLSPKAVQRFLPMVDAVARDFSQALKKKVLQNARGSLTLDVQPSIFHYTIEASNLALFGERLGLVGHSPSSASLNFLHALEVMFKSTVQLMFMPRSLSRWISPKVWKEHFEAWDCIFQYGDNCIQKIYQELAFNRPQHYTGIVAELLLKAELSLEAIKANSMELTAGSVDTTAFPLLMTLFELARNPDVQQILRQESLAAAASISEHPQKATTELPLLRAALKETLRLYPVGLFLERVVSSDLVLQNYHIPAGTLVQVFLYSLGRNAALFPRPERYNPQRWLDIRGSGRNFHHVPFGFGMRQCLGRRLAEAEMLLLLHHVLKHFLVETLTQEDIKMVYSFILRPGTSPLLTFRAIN
# Test: MAD study: plasma aldosterone and precursors (18-hydroxycorticosterone, corticosterone, 11-deoxycorticosterone)
# Format: in vivo
# Details: mean; for Plasma 11-deoxycorticosterone, Day −1 predose / Plasma 18-hydroxycorticosterone, Day −1 predose / Plasma aldosterone, Day −1 predose / Plasma corticosterone, Day −1 predose: baseline
# Description: For each subject, the study consisted of: • A screening period of up to 28 days; • A 5-day inpatient run-in period during which subjects adhered to a controlled, standardized diet and underwent baseline PD assessments; • A 15-day inpatient treatment period, during which subjects received (R)-compound 1 or placebo once daily for 10 days while adhering to a controlled, standardized diet, followed by PK and PD sampling over an additional 5 days; and • A follow-up visit 3 days (1 day) after discharge from the clinical unit. • A cortisol stimulation test (Cohorts 1 and 2 only) and standing aldosterone assessment (all cohorts) were performed on Days 1 and 10. Serial blood samples for PK and PD were obtained prior to and at specified time points over 24 hours after dosing on Day 1 as well as prior to and at specified time points over 120 hours after dosing on Day 10. In addition, blood samples for PK were collected prior to dosing on Days 8 and 9. Urine for PK and PD measurements was collected over 24 hours starting just prior to dosing on Day 1 as well as over 120 hours starting just prior to dosing on Day 10. […]
compound,measurement,setting,value
"CCC(=O)N[C@@H]1CCCc2c(-c3ccc4c(c3)CCC(=O)N4C)cncc21 [(R)-Compound 1, (R)—N-(4-(1-methyl-2-oxo-1,2,3,4-tetrahydroquinolin-6-yl)-5,6,7,8-tetrahydroisoquinolin-8-yl)propionamide]","Plasma 11-deoxycorticosterone, Day −1 predose","0.5 mg QD, normal salt diet",52.625 pg/mL
same,"Plasma 18-hydroxycorticosterone, Day −1 predose","0.5 mg QD, normal salt diet",955.5 pg/mL
same,"Plasma aldosterone, Day −1 predose","0.5 mg QD, normal salt diet",131.588 pg/mL
same,"Plasma corticosterone, Day −1 predose","0.5 mg QD, normal salt diet",4302.5 pg/mL
same,"Plasma 11-deoxycorticosterone, Day 1, 12 hours postdose","0.5 mg QD, normal salt diet",35.900 pg/mL
same,"Plasma 11-deoxycorticosterone, Day 1, predose","0.5 mg QD, normal salt diet",50.938 pg/mL
same,"Plasma 11-deoxycorticosterone, Day 2, predose","0.5 mg QD, normal salt diet",72.950 pg/mL
same,"Plasma 11-deoxycorticosterone, Day 10, 12 hours postdose","0.5 mg QD, normal salt diet",70.813 pg/mL
same,"Plasma 11-deoxycorticosterone, Day 10, 24 hours postdose","0.5 mg QD, normal salt diet",115.663 pg/mL
same,"Plasma 11-deoxycorticosterone, Day 10, predose","0.5 mg QD, normal salt diet",112.375 pg/mL
same,"Plasma 11-deoxycorticosterone, Percent change from Day −1 to Day 10, predose","0.5 mg QD, normal salt diet",161.115%
same,"Plasma 18-hydroxycorticosterone, Day 1, 12 hours postdose","0.5 mg QD, normal salt diet",310.1 pg/mL
same,"Plasma 18-hydroxycorticosterone, Day 1, predose","0.5 mg QD, normal salt diet",943.1 pg/mL
same,"Plasma 18-hydroxycorticosterone, Day 2, predose","0.5 mg QD, normal salt diet",819.6 pg/mL
same,"Plasma 18-hydroxycorticosterone, Day 10, 12 hours postdose","0.5 mg QD, normal salt diet",326.5 pg/mL
same,"Plasma 18-hydroxycorticosterone, Day 10, 24 hours postdose","0.5 mg QD, normal salt diet",1016.4 pg/mL
same,"Plasma 18-hydroxycorticosterone, Day 10, predose","0.5 mg QD, normal salt diet",983.1 pg/mL
same,"Plasma 18-hydroxycorticosterone, Percent change from Day −1 to Day 10","0.5 mg QD, normal salt diet",5.2%
same,"Plasma aldosterone, Day 1, 12 hours postdose","0.5 mg QD, normal salt diet",56.250 pg/mL
same,"Plasma aldosterone, Day 1, predose","0.5 mg QD, normal salt diet",133.013 pg/mL
same,"Plasma aldosterone, Day 2, predose","0.5 mg QD, normal salt diet",80.100 pg/mL
same,"Plasma aldosterone, Day 10, 12 hours postdose","0.5 mg QD, normal salt diet",83.625 pg/mL
same,"Plasma aldosterone, Day 10, 24 hours postdose","0.5 mg QD, normal salt diet",143.338 pg/mL
same,"Plasma aldosterone, Day 10, predose","0.5 mg QD, normal salt diet",152.875 pg/mL
same,"Plasma aldosterone, Percent change from Day −1 to Day 10, predose","0.5 mg QD, normal salt diet",28.841%
same,"Plasma corticosterone, Day 1, 12 hours postdose","0.5 mg QD, normal salt diet",695.6 pg/mL
same,"Plasma corticosterone, Day 1, predose","0.5 mg QD, normal salt diet",3170.0 pg/mL
same,"Plasma corticosterone, Day 2, predose","0.5 mg QD, normal salt diet",4490.0 pg/mL
same,"Plasma corticosterone, Day 10, 12 hours postdose","0.5 mg QD, normal salt diet",1211.4 pg/mL
same,"Plasma corticosterone, Day 10, 24 hours postdose","0.5 mg QD, normal salt diet",5923.8 pg/mL
same,"Plasma corticosterone, Day 10, predose","0.5 mg QD, normal salt diet",4187.5 pg/mL
same,"Plasma corticosterone, Percent change from Day −1 to Day 10, predose","0.5 mg QD, normal salt diet",73.0%
same,"Plasma 11-deoxycorticosterone, Day −1 predose","1.5 mg QD, normal salt diet",43.489 pg/mL
same,"Plasma 18-hydroxycorticosterone, Day −1 predose","1.5 mg QD, normal salt diet",1027.4 pg/mL
same,"Plasma aldosterone, Day −1 predose","1.5 mg QD, normal salt diet",143.100 pg/mL
same,"Plasma corticosterone, Day −1 predose","1.5 mg QD, normal salt diet",3748.3 pg/mL
same,"Plasma 11-deoxycorticosterone, Day 1, 12 hours postdose","1.5 mg QD, normal salt diet",19.656 pg/mL
same,"Plasma 11-deoxycorticosterone, Day 1, predose","1.5 mg QD, normal salt diet",44.711 pg/mL
same,"Plasma 11-deoxycorticosterone, Day 2, predose","1.5 mg QD, normal salt diet",53.344 pg/mL
same,"Plasma 11-deoxycorticosterone, Day 10, 12 hours postdose","1.5 mg QD, normal salt diet",46.733 pg/mL
same,"Plasma 11-deoxycorticosterone, Day 10, 24 hours postdose","1.5 mg QD, normal salt diet",84.767 pg/mL
same,"Plasma 11-deoxycorticosterone, Day 10, predose","1.5 mg QD, normal salt diet",73.322 pg/mL
same,"Plasma 11-deoxycorticosterone, Percent change from Day −1 to Day 10, predose","1.5 mg QD, normal salt diet",104.945%
same,"Plasma 18-hydroxycorticosterone, Day 1, 12 hours postdose","1.5 mg QD, normal salt diet",225.6 pg/mL
same,"Plasma 18-hydroxycorticosterone, Day 1, predose","1.5 mg QD, normal salt diet",991.7 pg/mL
same,"Plasma 18-hydroxycorticosterone, Day 2, predose","1.5 mg QD, normal salt diet",829.3 pg/mL
same,"Plasma 18-hydroxycorticosterone, Day 10, 12 hours postdose","1.5 mg QD, normal salt diet",318.4 pg/mL
same,"Plasma 18-hydroxycorticosterone, Day 10, 24 hours postdose","1.5 mg QD, normal salt diet",1000.1 pg/mL
same,"Plasma 18-hydroxycorticosterone, Day 10, predose","1.5 mg QD, normal salt diet",1047.9 pg/mL
same,"Plasma 18-hydroxycorticosterone, Percent change from Day −1 to Day 10","1.5 mg QD, normal salt diet",6.1%
same,"Plasma aldosterone, Day 1, 12 hours postdose","1.5 mg QD, normal salt diet",27.111 pg/mL
same,"Plasma aldosterone, Day 1, predose","1.5 mg QD, normal salt diet",110.567 pg/mL
same,"Plasma aldosterone, Day 2, predose","1.5 mg QD, normal salt diet",52.933 pg/mL
same,"Plasma aldosterone, Day 10, 12 hours postdose","1.5 mg QD, normal salt diet",41.300 pg/mL
same,"Plasma aldosterone, Day 10, 24 hours postdose","1.5 mg QD, normal salt diet",92.533 pg/mL
same,"Plasma aldosterone, Day 10, predose","1.5 mg QD, normal salt diet",82.144 pg/mL
same,"Plasma aldosterone, Percent change from Day −1 to Day 10, predose","1.5 mg QD, normal salt diet",−37.405%
same,"Plasma corticosterone, Day 1, 12 hours postdose","1.5 mg QD, normal salt diet",635.2 pg/mL
same,"Plasma corticosterone, Day 1, predose","1.5 mg QD, normal salt diet",3988.3 pg/mL
same,"Plasma corticosterone, Day 2, predose","1.5 mg QD, normal salt diet",4413.3 pg/mL
same,"Plasma corticosterone, Day 10, 12 hours postdose","1.5 mg QD, normal salt diet",1417.0 pg/mL
same,"Plasma corticosterone, Day 10, 24 hours postdose","1.5 mg QD, normal salt diet",6065.6 pg/mL
same,"Plasma corticosterone, Day 10, predose","1.5 mg QD, normal salt diet",5677.8 pg/mL
same,"Plasma corticosterone, Percent change from Day −1 to Day 10, predose","1.5 mg QD, normal salt diet",115.1%
same,"Plasma 11-deoxycorticosterone, Day −1 predose","2.5 mg QD, low salt diet",72.688 pg/mL
same,"Plasma 18-hydroxycorticosterone, Day −1 predose","2.5 mg QD, low salt diet",1269.6 pg/mL
same,"Plasma aldosterone, Day −1 predose","2.5 mg QD, low salt diet",272.125 pg/mL
same,"Plasma corticosterone, Day −1 predose","2.5 mg QD, low salt diet",6383.8 pg/mL
same,"Plasma 11-deoxycorticosterone, Day 1, 12 hours postdose","2.5 mg QD, low salt diet",133.300 pg/mL
same,"Plasma 11-deoxycorticosterone, Day 1, predose","2.5 mg QD, low salt diet",83.825 pg/mL
same,"Plasma 11-deoxycorticosterone, Day 10, 12 hours postdose","2.5 mg QD, low salt diet",204.250 pg/mL
same,"Plasma 11-deoxycorticosterone, Day 10, 24 hours postdose","2.5 mg QD, low salt diet",217.975 pg/mL
same,"Plasma 11-deoxycorticosterone, Day 10, predose","2.5 mg QD, low salt diet",164.725 pg/mL
same,"Plasma 11-deoxycorticosterone, Percent change from Day −1 to Day 10, predose","2.5 mg QD, low salt diet",412.560%
same,"Plasma 18-hydroxycorticosterone, Day 1, 12 hours postdose","2.5 mg QD, low salt diet",230.4 pg/mL
same,"Plasma 18-hydroxycorticosterone, Day 1, predose","2.5 mg QD, low salt diet",839.6 pg/mL
same,"Plasma 18-hydroxycorticosterone, Day 10, 12 hours postdose","2.5 mg QD, low salt diet",339.1 pg/mL
